According to ChEMBL document CHEMBL4699519, “Natural and Semisynthetic Chalcones as Dual FLT3 and Microtubule Polymerization Inhibitors” (J Nat Prod, 2020):
pIC50: −log10 of the molar value. One block for each molecule: values may come before it. Calls of active or inactive are those of the source. The rule behind the calls is not given here.

Experiments:
[1] = tested on: MV4-11; test: Antiproliferative activity against human MV4-11 cells assessed as reduction in cell viability at 25 uM after 72 hrs by MTS assay relative to control; type: functional
[2] = tested on: MV4-11; test: Antiproliferative activity against human MV4-11 cells assessed as reduction in cell viability at 50 uM after 72 hrs by MTS assay relative to control; type: functional
[3] = tested on: K562; test: Antiproliferative activity against human K562 cells assessed as reduction in cell viability at 25 uM after 72 hrs by MTS assay relative to control; type: functional
[4] = tested on: K562; test: Antiproliferative activity against human K562 cells assessed as reduction in cell viability at 50 uM after 72 hrs by MTS assay relative to control; type: functional
[5] = target: T1, Tubulin (Homo sapiens) (UniProt P68371+Q9H4B7+P0DPH7+P68366+Q13509+Q71U36+P04350+Q3ZCM7+P07437+P68363+Q9BQE3+Q6PEY2+Q13885+Q9BVA1+Q9BUF5); test: Displacement of colchicine from tubulin (unknown origin) at 50 uM after 1 hr by fluorescence assay relative to control; type: protein-complex assay
[6] = tested on: MOLM-13; test: Antiproliferative activity against human MOLM-13 cells assessed as reduction in cell viability after 72 hrs by MTS assay; type: functional
[7] = tested on: MV4-11; test: Antiproliferative activity against human MV4-11 cells assessed as reduction in cell viability after 72 hrs by MTS assay; type: functional
[8] = tested on: THP-1; test: Antiproliferative activity against human THP-1 cells assessed as reduction in cell viability after 72 hrs by MTS assay; type: functional
[9] = tested on: Receptor-type tyrosine-protein kinase FLT3 (Homo sapiens), P36888 [UNDEFINED MUTATION]; test: Inhibition of FLT3 ITD mutant in human MV4-11 cells assessed as inhibition of ERK phosphorylation at 25 to 50 uM incubated for 2 hrs by immunoblotting analysis; type: cell-based; conditions: dose microM 25-50, time 2.0 hrs
[10] = target: Receptor-type tyrosine-protein kinase FLT3 (Homo sapiens) (UniProt P36888); test: Inhibition of FLT3 (unknown origin) at 100 uM in presence of ATP relative to control
[11] = tested on: MOLM-13; test: Antiproliferative activity against human MOLM-13 cells harboring D835Y mutant assessed as reduction in cell viability after 72 hrs by MTS assay; type: functional
[12] = Resistant index, ratio of GI50 for antiproliferative activity against human MOLM-13 cells harboring D835Y mutant to antiproliferative activity against human MOLM-13 cells; type: functional
[13] = Selectivity ratio of GI50 for antiproliferative activity against human THP-1 cells to GI50 antiproliferative activity against human MV4-11 cells; type: functional
[14] = Selectivity ratio of GI50 for antiproliferative activity against human THP-1 cells to GI50 antiproliferative activity against human MOLM-13 cells; type: functional
[15] = tested on: Receptor-type tyrosine-protein kinase FLT3 (Homo sapiens), P36888 [UNDEFINED MUTATION]; test: Inhibition of FLT3 ITD mutant in human MV4-11 cells assessed as inhibition of ERK phosphorylation at 1.56 to 50 uM incubated for 2 hrs by immunoblotting analysis; type: cell-based; conditions: dose microM 1.56-50, time 2.0 hrs
[16] = tested on: Receptor-type tyrosine-protein kinase FLT3 (Homo sapiens), P36888 [UNDEFINED MUTATION]; test: Inhibition of FLT3 ITD mutant in human MV4-11 cells assessed as inhibition of STAT5 phosphorylation at 1.56 to 50 uM incubated for 2 hrs by immunoblotting analysis; type: cell-based; conditions: dose microM 1.56-50, time 2.0 hrs
[17] = target: T2, Receptor-type tyrosine-protein kinase FLT3 (Homo sapiens, UniProt P36888); test: Inhibition of FLT3 (unknown origin) in presence of ATP
T2 sequence (P36888 whole entry): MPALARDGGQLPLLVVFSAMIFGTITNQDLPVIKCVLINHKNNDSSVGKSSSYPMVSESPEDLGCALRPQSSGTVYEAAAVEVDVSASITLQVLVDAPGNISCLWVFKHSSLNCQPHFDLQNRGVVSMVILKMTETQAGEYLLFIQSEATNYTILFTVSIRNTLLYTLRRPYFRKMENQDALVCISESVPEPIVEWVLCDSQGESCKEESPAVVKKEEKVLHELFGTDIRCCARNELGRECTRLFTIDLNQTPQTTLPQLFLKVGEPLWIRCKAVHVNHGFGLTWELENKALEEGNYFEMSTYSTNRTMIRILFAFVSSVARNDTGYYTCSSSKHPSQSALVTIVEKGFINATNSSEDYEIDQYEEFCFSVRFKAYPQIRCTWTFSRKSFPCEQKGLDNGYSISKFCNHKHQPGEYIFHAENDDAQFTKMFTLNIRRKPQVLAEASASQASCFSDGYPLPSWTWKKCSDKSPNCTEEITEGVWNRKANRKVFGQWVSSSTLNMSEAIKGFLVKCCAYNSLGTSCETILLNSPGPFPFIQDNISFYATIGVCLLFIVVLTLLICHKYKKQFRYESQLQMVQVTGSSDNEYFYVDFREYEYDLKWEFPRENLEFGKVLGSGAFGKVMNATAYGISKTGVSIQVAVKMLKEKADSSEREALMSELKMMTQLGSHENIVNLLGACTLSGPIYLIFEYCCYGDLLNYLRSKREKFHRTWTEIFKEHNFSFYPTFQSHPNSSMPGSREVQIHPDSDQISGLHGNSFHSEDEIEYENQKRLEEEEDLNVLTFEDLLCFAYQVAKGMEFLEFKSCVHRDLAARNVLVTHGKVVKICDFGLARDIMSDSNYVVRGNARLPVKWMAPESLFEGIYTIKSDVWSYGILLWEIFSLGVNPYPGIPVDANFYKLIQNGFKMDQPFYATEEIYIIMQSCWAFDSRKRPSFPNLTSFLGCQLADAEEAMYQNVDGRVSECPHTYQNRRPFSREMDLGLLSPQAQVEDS

[18] = target: T1, Tubulin (Homo sapiens); test: Inhibition of microtubule polymerization in human HCT-116 cells assessed as increase in histone H3 phosphorylation at S10 residue at 25 uM after 8 hrs by DOT blot analysis; type: cell-based
[19] = target: T1, Tubulin (Homo sapiens); test: Inhibition of microtubule polymerization in human HCT-116 cells assessed as increase in histone H3 phosphorylation at S10 residue at 0.78 uM after 8 hrs by Western blot analysis; type: cell-based
[20] = target: T1, Tubulin (Homo sapiens); test: Inhibition of microtubule polymerization in human MV4-11 cells assessed as increase in histone H3 phosphorylation at S10 residue at 0.78 uM after 8 hrs by Western blot analysis; type: cell-based
[21] = target: T1, Tubulin (Homo sapiens); test: Inhibition of microtubule polymerization in human MV4-11 cells assessed as increase in histone H3 phosphorylation at S10 residue at 0.35 to 2.5 uM after 24 hrs by propidium iodide staining based flow cytometric analysis; type: cell-based; conditions: dose microM 0.35-2.5, time 24.0 hrs
[22] = target: T1, Tubulin (Homo sapiens); test: Inhibition of microtubule repolymerization in human A549 cells at 5 uM preincubated for 30 mins followed by 10 min incubation at ice cold methanol by DAPI staining based confocal microscopic method relative to control; type: cell-based; conditions: time 40.0 min
[23] = target: T1, Tubulin (Homo sapiens); test: Inhibition of tubulin polymerization (unknown origin) measured every 30 sec for 1 hrs in presence of GTP by turbidimetric analysis; type: protein-complex assay; conditions: dose microM 5-25, time 1.0 hrs
[24] = target: T1, Tubulin (Homo sapiens); test: Displacement of colchicine in tubulin (unknown origin) at 12.5 uM after 1 hr by fluorescence assay relative to control; type: protein-complex assay
[25] = target: T1, Tubulin (Homo sapiens); test: Displacement of colchicine from tubulin (unknown origin) at 25 uM after 1 hr by fluorescence assay relative to control; type: protein-complex assay
[26] = tested on: MV4-11; test: Induction of apoptosis in human MV4-11 cells assessed as increase in cleaved caspase-3 level at 0.313 to 5 uM after 24 hrs by Western blot analysis; type: functional, cell-based; conditions: dose microM 0.313-5, time 24.0 hrs
[27] = tested on: MV4-11; test: Induction of apoptosis in human MV4-11 cells assessed as increase in cleaved PARP level at 0.313 to 5 uM after 24 hrs by Western blot analysis; type: functional, cell-based; conditions: dose microM 0.313-5, time 24.0 hrs
[28] = tested on: MV4-11; test: Induction of apoptosis in human MV4-11 cells at 0.31 to 2.5 uM after 24 to 48 hrs by Annexin V/prpidium iodide staining based flow cytometric analysis; type: functional, cell-based; conditions: dose microM 0.31-2.5, time hrs 24-48
[29] = tested on: Receptor-type tyrosine-protein kinase FLT3 (Homo sapiens), P36888 [UNDEFINED MUTATION]; test: Inhibition of FLT3 ITD mutant in human MV4-11 cells assessed as inhibition of STAT5 phosphorylation at 25 to 50 uM incubated for 2 hrs by immunoblotting analysis; type: cell-based; conditions: dose microM 25-50, time 2.0 hrs

SMILES: O=C(/C=C/c1ccc(Cl)cc1)c1ccc(OCc2ccccc2)cc1
Activity [1]: inactive
Activity [2]: inactive
Activity [3]: inactive
Activity [4]: inactive

SMILES: COc1ccc(/C=C/C(=O)c2ccc3c(c2O)C=CC(C)(C)O3)cc1
Activity [1]: inactive
Activity [2]: inactive
Activity [3]: inactive
Activity [4]: inactive

inhibition [5]: 93.5%
SMILES: COC(=O)Nc1nc2cc(C(=O)c3cccs3)ccc2[nH]1

SMILES: O=C(/C=C/c1ccccc1)c1ccc(OCc2ccccc2)cc1
Activity [1]: inactive
Activity [2]: inactive
Activity [3]: inactive
Activity [4]: inactive

SMILES: O=C(/C=C/c1ccc(OCc2ccccc2)cc1)c1ccccc1
Activity [1]: inactive
Activity [2]: inactive
Activity [3]: inactive
Activity [4]: inactive

GI50 [6]: > 10 µM
GI50 [7]: > 10 µM
GI50 [8]: > 10 µM
inhibition [9]: Active
inhibition [10]: 39.5%
SMILES: O=C(/C=C/c1ccccc1)c1ccccc1O [2'-HYDROXYCHALCONE]
Activity [1]: Active
Activity [2]: Active
Activity [3]: Active
Activity [4]: Active

GI50 [6]: 0.052 µM
GI50 [11]: 1.9 µM
SMILES: COc1cc2c(N3CCN(C(=O)Nc4ccc(OC(C)C)cc4)CC3)ncnc2cc1OCCCN1CCCCC1 [TANDUTINIB]
RatioGI50 [12]: 35.8

SMILES: O=C(/C=C/c1ccc(F)cc1)c1ccc(OCc2ccccc2)cc1
Activity [1]: inactive
Activity [2]: inactive
Activity [3]: inactive
Activity [4]: inactive

SMILES: COc1ccc(/C=C/C(=O)c2ccc(OCc3ccccc3)cc2)c(OC)c1OC
Activity [1]: inactive
Activity [2]: inactive
Activity [3]: inactive
Activity [4]: inactive

SMILES: COc1cccc(/C=C/C(=O)c2ccc(OCc3ccccc3)cc2)c1
Activity [1]: inactive
Activity [2]: inactive
Activity [3]: inactive
Activity [4]: inactive

GI50 [6]: 0.2 µM
GI50 [7]: 0.24 µM
GI50 [8]: 5.4 µM
inhibition [15]: Active
inhibition [16]: Active
pIC50 [17]: 5.24
inhibition [18]: Active
inhibition [19]: Active
inhibition [20]: Active
inhibition [21]: Active
inhibition [22]: 100%
inhibition [23]: Active
inhibition [24]: 75%
inhibition [25]: 80%
inhibition [5]: 87%
GI50 [11]: 0.22 µM
SMILES: C=CCOc1cc(OC)ccc1C(=O)/C=C/c1ccc(OC)cc1
Activity [1]: >95%
Activity [2]: >95%
Activity [3]: >95%
Activity [4]: >95%
RatioGI50 [13]: >2
RatioGI50 [14]: >2
Activity [26]: Active
Activity [27]: Active
Activity [28]: Active
RatioGI50 [12]: 1

SMILES: O=C(/C=C/c1ccccc1Cl)c1ccc(OCc2ccccc2)cc1
Activity [1]: inactive
Activity [2]: inactive
Activity [3]: inactive
Activity [4]: inactive

GI50 [6]: 10 µM
GI50 [7]: > 10 µM
GI50 [8]: > 100 µM
inhibition [9]: Active
inhibition [29]: Active
pIC50 [17]: 4.86
SMILES: COc1ccc(C(=O)/C=C/c2ccc(OC)c(OC)c2)c(O)c1
Activity [1]: Active
Activity [2]: Active
Activity [3]: Active
Activity [4]: Active

GI50 [6]: > 10 µM
GI50 [7]: > 10 µM
GI50 [8]: > 100 µM
inhibition [29]: Active
SMILES: COc1ccc(/C=C/C(=O)c2ccc(OC)cc2O)cc1
Activity [1]: Active
Activity [2]: Active
Activity [3]: Active
Activity [4]: Active
